Laboratory results taken from paper PMC6383948, “Evaluation of a class of isatinoids identified from a high-throughput screen of human kinase inhibitors as anti-Sleeping Sickness agents” (PLoS Neglected Tropical Diseases, 2019).
In brackets after ≈: the same amount, converted by molar mass. Where two headings read alike, the source gives them in different places.

What was measured:
T. b. brucei = T. b. brucei growth inhibition EC50 assay (resazurin, 72 h); type: cell-based, Trypanosoma brucei brucei Lister 427; conditions: for EC50: Trypanosoma brucei
Method: Mid-log phase growth T. b. brucei was diluted to a working cell density of 2,750 cells/mL and 90 μL/well dispensed into 96-well flat-bottom transparent assay plates (Nunc). Ten μL/well from intermediate plates were added. The final top concentration of compounds was 40 μM in 0.4% DMSO per well.
Assay plates were incubated for 72 h at 37°C and 5% CO2. Four hours prior to the end of the incubation, 20 μL of a 440 μM resazurin solution in prewarmed HMI-9 was added to each well and incubated for another 4 h. Fluorescence was then measured in an Infinite F200 plate reader (Tecan) at 550 nm (excitation filter) and 590 nm (emission filter). A 4-parameter equation was employed to fit the dose-response curves and determine of EC50 using the SigmaPlot 13.0 software. Assays were performed in duplicate at least twice, to achieve a minimal n = 3 per dose response.
Bloodstream Trypanosoma brucei brucei Lister 427 was cultured in Hirumi’s modified Iscove’s medium (HMI-9), supplemented with 10% heat-inactivated FBS, at 37 °C and 5% CO2 in T-25 vented flask (Corning®).
For dose-response experiments, compound plates were prepared for each analogue by serial 3-fold dilutions in 100% DMSO. Five concentration points (mammalian cytotoxicity) or ten concentration points (parasite growth inhibition), were made in 96-well transparent Nunclon plates. Pentamidine is routinely included in compound plates as internal quality control, and plates are stored sealed at -20 °C for no more than four weeks.

MRC5-SV2 cell line = assay: Cytotoxicity assay in MRC5 (resazurin, 48 h); type: cell-based, human; conditions: MRC5 toxicity
Method: For dose-response experiments, compound plates were prepared for each analogue by serial 3-fold dilutions in 100% DMSO. Five concentration points (mammalian cytotoxicity) or ten concentration points (parasite growth inhibition), were made in 96-well transparent Nunclon plates. Pentamidine is routinely included in compound plates as internal quality control, and plates are stored sealed at -20 °C for no more than four weeks. Intermediate plates were made as described, adding 95 μL of DMEM complete media to 5 μL of compound per well setting a 5% DMSO amount. Log-phase MRC5 cells were removed from a T-75 TC flask using TrypLE® Express (Thermo®) and dispersed by gentle pipetting. Cell density was adjusted to working concentration in prewarmed DMEM medium: 25,000 cells in 90 μL of culture were plated in 96-well transparent Nunclon plates and let to settle for 24 h at 37 °C and 5% CO2. After settling incubation, 10 μL of fresh made intermediate plate were added per well: final maximal concentration for compounds was 50 μM in 0.5% DMSO per well. […] Fluorescence was read in an Infinite F200 plate reader (Tecan®) at 550 nm (excitation filter) and 590 nm (emission filter). A 4-parameter equation was used to fit the dose-response curves and determination of EC50 by SigmaPlot ® 13.0 software. Assays were performed in duplicate at least twice for positive compounds, to achieve a minimal n=3 per dose response.

[1] = Aqueous pH 7.4 solubility; type: physicochemical; conditions: pH 7.4 phosphate buffer, 25 °C, 20-24 h, read-out: Aq. Solubility
Method: Compounds are dried down from 10 mM DMSO solutions using centrifugal evaporation technique. Phosphate buffer (0.1 M pH 7.4) added and StirStix inserted in the glass vials, shaking is then performed at a constant temperature of 25 °C for 20-24 h. This step is followed by double centrifugation with a tip wash in between, to ensure that no residues of the dried compound are interfering. The solutions are diluted before analysis and quantification using LC/MS/MS is performed.

[2] = Human liver microsomal CLint; type: in vitro ADME; conditions: for microsomal CLint: human, liver microsomes, read-out: HLM Clint
Method: In vitro intrinsic clearance determined from human liver microsomes using a standard approach. Following incubation and preparation, the samples are analyzed using LC/MS/MS.

Rat hepatocyte CLint = type: in vitro ADME; conditions: rat hepatocytes
Method: In vitro intrinsic clearance determined from rat hepatocytes using a standard approach. Following incubation and preparation, the samples are analyzed using LC/MS/MS.

[3] = Human plasma protein binding (equilibrium dialysis); type: in vitro ADME; conditions: pH 7.4, read-out: PPB (converted)
Method: PPB is determined using equilibrium dialysis (RED device) to separate free from bound compound. The amount of compound in plasma (10 µM initial concentration) and in dialysis buffer (pH 7.4 phosphate buffer) is measured by LC-MS/MS after equilibration at 37 °C in a dialysis chamber. The fraction unbound (fu) is reported.

T. cruzi = assay: β-D-Galactosidase transgenic T. cruzi assay (amastigote-infected L6 cells); type: cell-based, T. cruzi Tulahuen C4 strain; conditions: Trypanosoma cruzi, 96 h, read-out: T. cruzi pEC50 (converted)
Method: The T. cruzi Tulahuen C4 strain, expressing the β-galactosidase gene (LacZ) and L6 rat skeletal muscle cells, used as host cells, were cultured in RPMI-1640 supplemented with 10% iFBS, 2 mM L-glutamine, 100 U/mL penicillin, and 100 μg/mL streptomycin at 37 °C and 5% CO2.
A Thermo Scientific Multidrop Combi dispenser (MTX Lab Systems, Vienna, VA) was used to dispense 90 μL of T. cruzi amastigote–infected L6 cell culture (4×10^3 infected L6 cells per well) into 96-well Corning assay plates (Corning Inc., Corning, NY) already containing 10 μL of the compounds to be screened and controls. The plates were incubated at 37 °C for 96 h. Then, 30 μL of 100 μM CPRG and 0.1% NP40 diluted in PBS were added to each well, and the plates were incubated for 4 h at 37 °C in the dark. Absorbance at 585 nm was measured in a Vmax kinetic microplate reader ([…]). Compound activities were normalized using the in-plate negative (benznidazole at 10 μg/mL) and positive (0.2% DMSO) growth controls.

L. donovani = assay: EC50 in L. donovani (infected THP-1 macrophages, luciferase); type: cell-based, Leishmania donovani MHOM/ET/67/HU3; conditions: Leishmania donovani, 72 h, read-out: L. donovani pEC50 (converted)
Method: Leishmania donovani MHOM/ET/67/HU3 cells with the luciferase gene integrated into the parasite genome[1] were grown at 28 °C in RPMI 1640-modified medium (Invitrogen) supplemented with 20% FBS with […] of hygromycin B.
The Human myelomonocytic cell line THP-1 was grown at 37 °C and 5% CO2 in RPMI-1640 supplemented with 10% iFBS, 2 mM […], 100 U/mL penicillin and […] streptomycin. 3 x 10^4 THP-1 cells per well in 96-well plates were differentiated to macrophages with 20 ng/mL of PMA treatment for 48 h followed by 24 h of culture in fresh medium.
Macrophage-differentiated THP-1 cells were infected at a macrophage/parasite ratio of 1/10 with stationary L. donovani promastigotes for 24 h at 35 °C and 5% CO2, and extracellular parasites were removed by washing with PBS. Infected cell cultures were then incubated with different compounds concentrations at 37 °C for 72 h. Luminescence was measured using the Promega kit luciferase assay system (Promega, Madison, WI). Assays were performed in duplicate at least twice, to achieve a minimal n=3 per dose response.

[4] = 72 h, resazurin, error within ±0.20 (Table 2) or ±0.08 (Table 3) log units, read-out: T.b.b. pEC50 (converted)
[5] = aqueous buffer, thermodynamic from solid

Structure (SMILES)	EC50 (T. b. brucei; [4])	MRC5 pTC50 (MRC5-SV2 cell line)	solubility [1, 5]	microsomal CLint [2]	hepatocyte CLint (Rat hepatocyte CLint)	fraction unbound at 10 µM [3]	EC50 (T. cruzi)	EC50 (L. donovani)	solubility [1]	activity against T. brucei (T. b. brucei)	EC50 (T. b. brucei; T. brucei, read-out: EC50)	HLM Clint ([2]; human liver microsomes)
CN(C)S(=O)(=O)c1ccc(N/N=C2\C(=O)Nc3ccccc32)cc1 [NEU-2118, (Z)-N,N-Dimethyl-4-(2-(2-oxoindolin-3-ylidene)hydrazinyl)benzenesulfonamide]	1580 nM	<4.3	< 1 µM	38.2 µL/min/mg	146 µL/min/1e6 cells	0.01	> 10000 nM	> 10000 nM	–	–	–	–
CNS(=O)(=O)c1ccc(N/N=C2\C(=O)Nc3ccccc32)cc1 [NEU-2124, (Z)-N-Methyl-4-(2-(2-oxoindolin-3-ylidene)hydrazinyl)benzenesulfonamide]	5010 nM	<4.3	< 39 µM	20.3 µL/min/mg	36.4 µL/min/1e6 cells	0.02	> 10000 nM	> 10000 nM	> 10 µM	–	–	–
CNS(=O)(=O)c1ccc(N/N=C2\C(=O)Nc3cccc(C=C(C)C)c32)cc1 [NEU-4391, (Z)-N-Methyl-4-(2-(4-(2-methylprop-1-en-1-yl)-2-oxoindolin-3-ylidene)hydrazinyl)benzenesulfonamide]	158 nM	<4.3	–	8.6 µL/min/mg	103 µL/min/1e6 cells	< 0.04	2240 nM	> 5010 nM	4 µM (≈ 1.54 µg/mL)	sub-micromolar activity	84 nM	8.63 µL/min/mg
